Experimental findings from patent US10479795B2 (Incyte Corporation, priority 2016, dated 2019) are described below.

Molecules are shown by their SMILES. Where a name gives a salt, the structure may show the parent alone.

PI3Kγ (p110γ) Recombinant Human Protein, sequence (P48736 whole entry): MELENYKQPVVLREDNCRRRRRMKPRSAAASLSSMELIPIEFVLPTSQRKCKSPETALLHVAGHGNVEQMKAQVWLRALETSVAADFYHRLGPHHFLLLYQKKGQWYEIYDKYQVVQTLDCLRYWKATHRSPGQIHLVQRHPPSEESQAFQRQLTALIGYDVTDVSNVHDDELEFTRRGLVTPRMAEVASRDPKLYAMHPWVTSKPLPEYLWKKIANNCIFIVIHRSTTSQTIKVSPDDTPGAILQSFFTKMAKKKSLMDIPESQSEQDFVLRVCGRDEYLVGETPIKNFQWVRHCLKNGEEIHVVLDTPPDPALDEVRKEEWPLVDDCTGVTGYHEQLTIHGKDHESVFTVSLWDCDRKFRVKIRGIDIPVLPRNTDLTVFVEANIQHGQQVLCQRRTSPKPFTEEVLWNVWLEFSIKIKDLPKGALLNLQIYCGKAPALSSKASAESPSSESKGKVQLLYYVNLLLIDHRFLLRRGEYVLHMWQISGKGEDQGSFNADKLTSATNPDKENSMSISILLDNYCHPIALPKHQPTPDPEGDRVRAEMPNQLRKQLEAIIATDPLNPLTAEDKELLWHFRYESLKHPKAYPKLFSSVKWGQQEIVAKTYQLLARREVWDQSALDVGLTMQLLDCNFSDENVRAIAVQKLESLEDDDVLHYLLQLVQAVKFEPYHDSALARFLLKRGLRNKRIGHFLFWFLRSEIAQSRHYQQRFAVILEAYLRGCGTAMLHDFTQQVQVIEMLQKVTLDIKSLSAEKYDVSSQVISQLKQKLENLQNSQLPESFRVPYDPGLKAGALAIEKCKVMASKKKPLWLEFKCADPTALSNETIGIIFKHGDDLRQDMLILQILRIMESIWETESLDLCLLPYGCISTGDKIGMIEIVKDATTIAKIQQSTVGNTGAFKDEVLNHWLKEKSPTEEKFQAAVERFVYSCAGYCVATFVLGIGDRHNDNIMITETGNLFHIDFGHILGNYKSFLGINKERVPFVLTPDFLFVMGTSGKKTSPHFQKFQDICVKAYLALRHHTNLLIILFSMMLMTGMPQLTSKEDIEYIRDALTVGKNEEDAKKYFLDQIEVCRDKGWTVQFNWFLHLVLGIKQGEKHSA

The test deals with PI3Kγ (p110γ) Recombinant Human Protein (Homo sapiens (Human), UniProt P48736). As to the kind of experiment: PI3K-γ Scintillation Proximity Assay. It is filed as biochemical. The settings on record: read-out: PI3Kγ IC50. The protocol:
[γ-^33P]ATP (10 mCi/mL) and Wheat Germ Agglutinin (WGA) YSi SPA Scintillation Beads was purchased from Perkin-Elmer (Waltham, Mass.). […] PI3Kγ (p110γ) Recombinant Human Protein was purchased from Life technology (Grand Island, N.Y.). ATP, MgCl2, DTT, EDTA, MOPS and CHAPS were purchased from Sigma-Aldrich (St. Louis, Mo.).
The kinase reaction was conducted in polystyrene 384-well Greiner Bio-one white plate from Thermo Fisher Scientific in a final volume of 25 μL. Inhibitors were first diluted serially in DMSO and added to the plate wells before the addition of other reaction components. The final concentration of DMSO in the assay was 2%. The PI3Kγ assay was carried out at room temperature in 20 mM MOPS, pH 6.7, 10 mM MgCl2, 5 mM DTT and CHAPS 0.03%. Reactions were initiated by the addition of ATP, the final reaction mixture consisted of 20 μM PIP2, 2 μM ATP, 0.5 μCi [γ-^33P] […] The final concentration of SPA beads is 1.0 mg/mL. After the plate sealing, plates were shaken overnight at room temperature and centrifuged at 1500 rpm for 10 min, the radioactivity of the product was determined by scintillation counting on Topcount (Perkin-Elmer). IC50 determination was performed by fitting the curve of percent of the solvent control activity versus the log of the inhibitor concentration using the GraphPad Prism 6.0 software.
A general note: SPA uses beads or plates that emit light when radiolabelled molecules are held near them.
On to `CC(=O)Nc1ccc(NS(=O)(=O)c2ccc(C)c(-c3cnc4c(N)ncnn34)c2)cn1` [Example 244, N-(5-((3-(4-aminoimidazo[2,1-f][1,2,4]triazin-7-yl)-4-methylphenyl)sulfonamido)pyridin-2-yl)acetamide], for which the IC50 – broadly, the concentration that gives 50% inhibition – is less than 100 nM.

Take `Cc1ccncc1NS(=O)(=O)c1ccc(C)c(-c2cnc3c(N)ncnn23)c1` [Example 245, 3-(4-aminoimidazo[2,1-f][1,2,4]triazin-7-yl)-4-methyl-N-(4-methylpyridin-3-yl)benzenesulfonamide]: the IC50 was less than 100 nM.

`COc1ccc(NS(=O)(=O)c2ccc(C)c(-c3cnc4c(N)ncnn34)c2)c(C)n1` [Example 246, 3-(4-aminoimidazo[2,1-f][1,2,4]triazin-7-yl)-N-(6-methoxy-2-methylpyridin-3-yl)-4-methylbenzenesulfonamide]: the IC50 was less than 100 nM.

Regarding `Cc1ccc(S(=O)(=O)N(C)c2ccncc2)cc1-c1cnc2c(N)ncnn12` [Example 247, 3-(4-aminoimidazo[2,1-f][1,2,4]triazin-7-yl)-N,4-dimethyl-N-(pyridin-4-yl)benzenesulfonamide], the IC50 was less than 100 nM.

`Cc1ccc(S(=O)(=O)Nc2ccnc(C#N)c2)cc1-c1cnc2c(N)ncnn12` [Example 248, 3-(4-aminoimidazo[2,1-f][1,2,4]triazin-7-yl)-N-(2-cyanopyridin-4-yl)-4-methylbenzenesulfonamide]: the IC50 is less than 100 nM.

Regarding `Cc1ccc(S(=O)(=O)NCc2ccnn2C)cc1-c1cnc2c(N)nc(C(F)(F)F)nn12` [Example 357, 3-(4-amino-2-(trifluoromethyl)imidazo[2,1-f][1,2,4]triazin-7-yl)-4-methyl-N-((1-methyl-1H-pyrazol-5-yl)methyl)benzenesulfonamide], the IC50 is less than 100 nM.

For the compound `Cc1ccc(S(=O)(=O)NCc2cnccn2)cc1-c1cnc2c(N)nc(C(F)(F)F)nn12` [Example 358, 3-(4-amino-2-(trifluoromethyl)imidazo[2,1-f][1,2,4]triazin-7-yl)-4-methyl-N-(pyrazin-2-ylmethyl)benzenesulfonamide], the IC50 was less than 100 nM.

`Cc1ccc(S(=O)(=O)NC23CCCC(C#N)(C2)C3)cc1-c1cnc2c(N)ncnn12` [Example 520, 3-(4-Aminoimidazo[2,1-f][1,2,4]triazin-7-yl)-N-(5-cyanobicyclo[3.1.1]heptan-1-yl)-4-methylbenzenesulfonamide trifluoroacetate]: the IC50 is less than 100 nM.

As to `Cc1ccc(S(=O)(=O)NC23CCCC(C(C)O)(C2)C3)cc1-c1cnc2c(N)ncnn12` (stereo not drawn) [Example 521, 3-(4-aminoimidazo[2,1-f][1,2,4]triazin-7-yl)-N-(5-(1-hydroxyethyl)bicyclo[3.1. 1]heptan-1-yl)-4-methylbenzenesulfonamide trifluoroacetate], the IC50 was less than 100 nM.

With `Cc1ccc(S(=O)(=O)NC23CCCC(C(C)N4CC(C#N)C4)(C2)C3)cc1-c1cnc2c(N)ncnn12` (stereo not drawn) [Example 522, 3-(4-Aminoimidazo[2,1-f][1,2,4]triazin-7-yl)-N-(5-(1-(3-cyanoazetidin-1-yl)ethyl)bicyclo[3.1.1]heptan-1-yl)-4-methylbenzenesulfonamide trifluoroacetate], the IC50 was less than 100 nM.

In the case of `Cc1ccc(S(=O)(=O)NC23CC(CN(C)C2)C3)cc1-c1cnc2c(N)ncnn12` [Example 523, 3-(4-Aminoimidazo[2,1-f][1,2,4]triazin-7-yl)-4-methyl-N-(3-methyl-3-azabicyclo[3.1.1]heptan-1-yl)benzenesulfonamide trifluoroacetate], the IC50 was less than 100 nM.

On to `Cc1ccc(S(=O)(=O)NC23CC(CN(C(C)C)C2)C3)cc1-c1cnc2c(N)nc(C(F)(F)F)nn12` [Example 524, 3-(4-Amino-2-(trifluoromethyl)imidazo[2,1-f][1,2,4]triazin-7-yl)-N-(3-isopropyl-3-azabicyclo[3.1.1]heptan-1-yl)-4-methylbenzenesulfonamide trifluoroacetate], for which the IC50 was less than 100 nM.

In the case of `Cc1ccc(S(=O)(=O)NC23CC(CN(C4CCC4)C2)C3)cc1-c1cnc2c(N)ncnn12` [Example 525, 3-(4-Aminoimidazo[2,1-f][1,2,4]triazin-7-yl)-N-(3-cyclobutyl-3-azabicyclo[3.1.1]heptan-1-yl)-4-methylbenzenesulfonamide trifluoroacetate], the half-inhibitory concentration (IC50) was 100 to 500 nM.

On to `Cc1ccc(S(=O)(=O)NC2(C)CCCN(C)C2)cc1-c1cnc2c(N)nc(C(F)(F)F)nn12` (stereo not drawn) [Example 526, 3-(4-Amino-2-(trifluoromethyl)imidazo[2,1-f][1,2,4]triazin-7-yl)-N-(1,3-dimethylpiperidin-3-yl)-4-methylbenzenesulfonamide trifluoroacetate], for which the IC50 is less than 100 nM.

Turning to `Cc1ccc(S(=O)(=O)NC2(C)CCCN(C(C)C)C2)cc1-c1cnc2c(N)nc(C(F)(F)F)nn12` (stereo not drawn) [Example 527, 3-(4-Amino-2-(trifluoromethyl)imidazo[2,1-f][1,2,4]triazin-7-yl)-N-(1-isopropyl-3-methylpiperidin-3-yl)-4-methylbenzenesulfonamide trifluoroacetate], the IC50 is less than 100 nM.

Regarding `Cc1ccc(S(=O)(=O)NC2(C)CCN(C)CC2)cc1-c1cnc2c(N)nc(C(F)(F)F)nn12` [Example 528, 3-(4-Amino-2-(trifluoromethyl)imidazo[2,1-f][1,2,4]triazin-7-yl)-N-(1,4-dimethylpiperidin-4-yl)-4-methylbenzenesulfonamide trifluoroacetate], the IC50 was less than 100 nM.

Regarding `Cc1ccc(S(=O)(=O)NC2(C)CCN(C3CC(C#N)C3)CC2)cc1-c1cnc2c(N)nc(C(F)(F)F)nn12` (stereo not drawn) [Example 529, 3-(4-Amino-2-(trifluoromethyl)imidazo[2,1-f][1,2,4]triazin-7-yl)-N-(1-(3-cyanocyclobutyl)-4-methylpiperidin-4-yl)-4-methylbenzenesulfonamide trifluoroacetate], the IC50 fell in the range of 100 to 500 nM.

For `Cc1ccc(S(=O)(=O)NC2(C)CCN(C3CCOC3)CC2)cc1-c1cnc2c(N)nc(C(F)(F)F)nn12` (stereo not drawn) [Example 530, 3-(4-Amino-2-(trifluoromethyl)imidazo[2,1-f][1,2,4]triazin-7-yl)-4-methyl-N-(4-methyl-1-(tetrahydrofuran-3-yl)piperidin-4-yl)benzenesulfonamide trifluoroacetate], the IC50 was 100 to 500 nM.

For `Cc1ccc(S(=O)(=O)NC2(C)CNC2)cc1-c1cnc2c(N)nc(C(F)(F)F)nn12` [Example 531, 3-(4-Amino-2-(trifluoromethyl)imidazo[2,1-f][1,2,4]triazin-7-yl)-4-methyl-N-(3-methylazetidin-3-yl)benzenesulfonamide trifluoroacetate], the IC50 was less than 100 nM.

On to `Cc1ccc(S(=O)(=O)NC2(C)CN(C)C2)cc1-c1cnc2c(N)nc(C(F)(F)F)nn12` [Example 532, 3-(4-Amino-2-(trifluoromethyl)imidazo[2,1-f][1,2,4]triazin-7-yl)-N-(1,3-dimethylazetidin-3-yl)-4-methylbenzenesulfonamide], for which the IC50 was less than 100 nM.

As for `Cc1ccc(S(=O)(=O)NC2(C)CCN(C)C2)cc1-c1cnc2c(N)nc(C(F)(F)F)nn12` (stereo not drawn) [Example 533, 3-(4-Amino-2-(trifluoromethyl)imidazo[2,1-f][1,2,4]triazin-7-yl)-N-(1,3-dimethylpyrrolidin-3-yl)-4-methylbenzenesulfonamide trifluoroacetate], the IC50 was less than 100 nM.

`Cc1ccc(S(=O)(=O)NC23C4C5C2C2C3C4C52C#N)cc1-c1cnc2c(N)ncnn12` (stereo not drawn) [Example 534, 3-(4-Aminoimidazo[2,1-f][1,2,4]triazin-7-yl)-N-(4-cyanocuban-1-yl)-4-methylbenzenesulfonamide trifluoroacetate]: the IC50 was less than 100 nM.

As to `Cc1ccc(S(=O)(=O)NC23C4C5C2C2C3C4C52C(C)(C)O)cc1-c1cnc2c(N)ncnn12` (stereo not drawn) [Example 535, 3-(4-Aminoimidazo[2,1-f][1,2,4]triazin-7-yl)-N-(4-(2-hydroxypropan-2-yl)cuban-1-yl)-4-methylbenzenesulfonamide trifluoroacetate], the IC50 was less than 100 nM.

Take `Cc1ccc(S(C)(=O)=O)cc1-c1cnc2c(N)nc(C3CCOCC3)cn12` [Example 536, 3-(2-Methyl-5-(methylsulfonyl)phenyl)-6-(tetrahydro-2H-pyran-4-yl)imidazo[1,2-a]pyrazin-8-amine trifluoroacetate]: the IC50 is less than 100 nM.

Take `CC(=O)N1CCC(c2cn3c(-c4cc(S(C)(=O)=O)ccc4C)cnc3c(N)n2)CC1` [Example 537, 1-(4-(8-Amino-3-(2-methyl-5-(methylsulfonyl)phenyl)imidazo[1,2-a]pyrazin-6-yl)piperidin-1-yl)ethan-1-one trifluoroacetate]: the IC50 is less than 100 nM.

With `COC(=O)N1CCC(c2cn3c(-c4cc(S(C)(=O)=O)ccc4C)cnc3c(N)n2)C1` (stereo not drawn) [Example 538, Methyl 3-(8-amino-3-(2-methyl-5-(methylsulfonyl)phenyl)imidazo[1,2-a]pyrazin-6-yl)pyrrolidine-1-carboxylate trifluoroacetate], the IC50 was in the range of 100 to 500 nM.

For the compound `Cc1ccc(S(=O)(=O)Nc2ccc(C(=O)NCC(F)(F)F)nc2)cc1-c1cnc2c(N)ncnn12` [Example 539, 5-((3-(4-Aminoimidazo[2,1-f][1,2,4]triazin-7-yl)-4-methylphenyl)sulfonamido)-N-(2,2,2-trifluoroethyl)picolinamide trifluoroacetate], the IC50 was less than 100 nM.
